For 15 compounds, T/C results are on record in PubChem BioAssay AID328 (DTP/NCI, 2004).

Where “and” joins values, the source holds several entries; their conditions need not be identical. Equal entries are not always repeated. Inconclusive results and toxic doses are left out.

The assay concerns BDF1 mice, P388 leukemia ip, median survival T/C. Put plainly: NCI In Vivo Anticancer Drug Screen. Data for tumor model P388 Leukemia (intraperitoneal) in B6D2F1 (BDF1) mice. The conditions noted are these: endpoint: median survival time, higher = longer survival. The procedure, abridged: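 Reported as T/C, where T is the survival measurement in dosed animals and C the same measurement in vehicle controls.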

The mark [1] stands for this setting: dose: 100.0 mg/kg/injection, schedule: Q01DX009 (ip), vehicle: Klucel (hydroxypropylcellulose) (HPC).
Setting [2] is: dose: 100.0 mg/kg/injection, schedule: Q04DX003 (ip), vehicle: Klucel (hydroxypropylcellulose) (HPC).
The mark [3] stands for this setting: dose: 200.0 mg/kg/injection, schedule: Q01DX009 (ip), vehicle: Klucel (hydroxypropylcellulose) (HPC).
[4] abbreviates: dose: 200.0 mg/kg/injection, schedule: Q04DX003 (ip), vehicle: Klucel (hydroxypropylcellulose) (HPC).
The mark [5] stands for this setting: dose: 400.0 mg/kg/injection, schedule: Q01DX009 (ip), vehicle: Klucel (hydroxypropylcellulose) (HPC).
The mark [6] stands for this setting: dose: 400.0 mg/kg/injection, schedule: Q04DX003 (ip), vehicle: Klucel (hydroxypropylcellulose) (HPC).
Where [7] appears, read: dose: 100.0 mg/kg/injection, schedule: Q01DX009 (ip), vehicle: saline.
The mark [8] stands for this setting: dose: 12.5 mg/kg/injection, schedule: Q01DX009 (ip), vehicle: saline.
Where [9] appears, read: dose: 25.0 mg/kg/injection, schedule: Q01DX009 (ip), vehicle: saline.
The mark [10] stands for this setting: dose: 50.0 mg/kg/injection, schedule: Q01DX009 (ip), vehicle: saline.

As to `C1CN1P1(N2CC2)=NP(N2CC2)(N2CC2)=NP(N2CC2)(N2CC2)=NP(N2CC2)(N2CC2)=N1`, the T/C runs as follows: (dose: 0.27 mg/kg/injection, schedule: Q01DX009 (ip), vehicle: saline) 116 % of control; (dose: 0.4 mg/kg/injection, schedule: Q01DX009 (ip), vehicle: saline) 112 % of control; (dose: 0.62 mg/kg/injection, schedule: Q01DX009 (ip), vehicle: saline) 172 % of control; (dose: 0.63 mg/kg/injection, schedule: Q04DX003 (ip), vehicle: saline) 113 % of control; (dose: 1.25 mg/kg/injection, schedule: Q01DX009 (ip), vehicle: saline) 159 % of control; (dose: 1.9 mg/kg/injection, schedule: Q04DX003 (ip), vehicle: saline) 154 % of control. Also, the T/C runs as follows: (dose: 2.5 mg/kg/injection, schedule: Q01DX009 (ip), vehicle: saline) 200 % of control; (dose: 2.5 mg/kg/injection, schedule: Q04DX003 (ip), vehicle: saline) 166 % of control; (dose: 2.9 mg/kg/injection, schedule: Q04DX003 (ip), vehicle: saline) 168 % of control; (dose: 4.4 mg/kg/injection, schedule: Q04DX003 (ip), vehicle: saline) 186 % of control; (dose: 5.0 mg/kg/injection, schedule: Q04DX003 (ip), vehicle: saline) 219 % of control; (dose: 6.6 mg/kg/injection, schedule: Q01DX009 (ip), vehicle: saline) 240 % of control. Also, the T/C is, setting by setting: (dose: 10.0 mg/kg/injection, schedule: Q04DX003 (ip), vehicle: saline) 225 % of control and 223 % of control; (dose: 13.2 mg/kg/injection, schedule: Q04DX003 (ip), vehicle: saline) 100 % of control; (dose: 13.3 mg/kg/injection, schedule: Q04DX003 (ip), vehicle: saline) 223 % of control; (dose: 15.0 mg/kg/injection, schedule: Q01DX009 (ip), vehicle: saline) 155 % of control; (dose: 30.0 mg/kg/injection, schedule: Q04DX003 (ip), vehicle: saline) 285 % of control; (dose: 40.0 mg/kg/injection, schedule: Q04DX003 (ip), vehicle: saline) 105 % of control.
As for `O=CNNc1ccc([N+](=O)[O-])cc1`, the T/C is, setting by setting: under setting [1], 90 % of control; under setting [2], 105 % of control; under setting [3], 100 % of control; under setting [4], 100 % of control; under setting [5], 104 % of control; under setting [6], 105 % of control.
Regarding `COC1/C=C/O[C@@]2(C)Oc3c(C)c(O)c4c(O)c(cc(O)c4c3C2=O)NC(=O)/C(C)=C\C=C\[C@H](C)C(O)[C@@H](C)[C@@H](O)[C@@H](C)[C@H](OC(C)=O)[C@@H]1C` (some centres undefined), the T/C runs as follows: under setting [7], 123 % of control; (dose: 200.0 mg/kg/injection, schedule: Q01DX009 (ip), vehicle: saline) 114 % of control; (dose: 400.0 mg/kg/injection, schedule: Q01DX009 (ip), vehicle: saline) 119 % of control.
As for `CC(CNCCN)C[Si](C)(C)C` (centres undefined), the T/C is 95 % of control under setting [8]; 88 % of control (dose: 12.5 mg/kg/injection, schedule: Q04DX003 (ip), vehicle: saline); 100 % of control under setting [9]; 100 % of control (dose: 25.0 mg/kg/injection, schedule: Q04DX003 (ip), vehicle: saline); 90 % of control under setting [10]; 94 % of control (dose: 50.0 mg/kg/injection, schedule: Q04DX003 (ip), vehicle: saline).
Turning to `Cc1ccc([N+](=O)[O-])cc1NC(=O)Oc1ccccc1`, the T/C is 92 % of control (dose: 100.0 mg/kg/injection, schedule: Q04DX003 (ip), vehicle: other); 96 % of control (dose: 200.0 mg/kg/injection, schedule: Q04DX003 (ip), vehicle: other); 96 % of control (dose: 400.0 mg/kg/injection, schedule: Q04DX003 (ip), vehicle: other).
For `OCc1ccn2c1C(O)CC2` (centres undefined), the T/C is 112 % of control (dose: 12.5 mg/kg/injection, schedule: Q01DX009 (ip), vehicle: other); 102 % of control (dose: 25.0 mg/kg/injection, schedule: Q01DX009 (ip), vehicle: other); 115 % of control under setting [9]; 100 % of control (dose: 50.0 mg/kg/injection, schedule: Q01DX009 (ip), vehicle: other); 165 % of control under setting [10]; 100 % of control (dose: 100.0 mg/kg/injection, schedule: Q01DX009 (ip), vehicle: other). Further, under setting [7], the T/C is 240 % of control and 100 % of control.
On to `Cc1cccc(C)c1NC(=O)c1ccccc1Cl`, for which the T/C was 113 % of control (dose: 100.0 mg/kg/injection, schedule: Q04DX003 (ip), vehicle: saline with Tween-80); 109 % of control (dose: 200.0 mg/kg/injection, schedule: Q04DX003 (ip), vehicle: saline with Tween-80); 104 % of control (dose: 400.0 mg/kg/injection, schedule: Q04DX003 (ip), vehicle: saline with Tween-80).
With `COc1ccc(-c2cc(-c3ccc(Cl)cc3)no2)cc1`, the T/C by setting is: under setting [1], 90 % of control; under setting [2], 100 % of control; under setting [3], 90 % of control; under setting [4], 100 % of control; under setting [5], 100 % of control; under setting [6], 100 % of control.
As to `CC[N+](CC)(CC)CCCC[N+](CC)(CC)CC`, the T/C was 97 % of control (dose: 12.5 mg/kg/injection, schedule: Q01DX009 (ip), vehicle: water); 95 % of control (dose: 25.0 mg/kg/injection, schedule: Q01DX009 (ip), vehicle: water); 109 % of control (dose: 25.0 mg/kg/injection, schedule: Q04DX003 (ip), vehicle: water); 100 % of control (dose: 50.0 mg/kg/injection, schedule: Q01DX009 (ip), vehicle: water); 104 % of control (dose: 50.0 mg/kg/injection, schedule: Q04DX003 (ip), vehicle: water).
Consider `C1CC[N-]CC1.C1CC[N-]CC1.CS(C)=O.[Cl][Rh]([Cl])[Cl]`, for which the T/C is 150 % of control (dose: 8.3 mg/kg/injection, schedule: Q01DX009 (ip), vehicle: saline); 150 % of control and 155 % of control under setting [8]; 150 % of control (dose: 18.7 mg/kg/injection, schedule: Q01DX009 (ip), vehicle: saline).
Regarding `c1ccc(-c2ccc(-c3cn4ccsc4n3)cc2)cc1`, the T/C reads like this: (dose: 100.0 mg/kg/injection, schedule: Q01DX001 (ip), vehicle: Klucel (hydroxypropylcellulose) (HPC)) 101 % of control; (dose: 200.0 mg/kg/injection, schedule: Q01DX001 (ip), vehicle: Klucel (hydroxypropylcellulose) (HPC)) 99 % of control; (dose: 400.0 mg/kg/injection, schedule: Q01DX001 (ip), vehicle: Klucel (hydroxypropylcellulose) (HPC)) 100 % of control.
For `O=c1[nH]c(=O)c(C2OC(CO)C(O)C2O)co1` (centres undefined), the T/C (dose: 20.0 mg/kg/injection, schedule: Q04DX003 (ip), vehicle: saline with Tween-80) is 100 % of control.
Consider `COC(=O)c1ccc([N+](=O)[O-])c(OC)c1`, for which the T/C is 100 % of control (dose: 75.0 mg/kg/injection, schedule: Q04DX003 (ip), vehicle: saline); 100 % of control (dose: 150.0 mg/kg/injection, schedule: Q04DX003 (ip), vehicle: saline); 104 % of control (dose: 300.0 mg/kg/injection, schedule: Q04DX003 (ip), vehicle: saline).
Regarding `NC(=S)N/N=C/c1nccc2ccccc12`, the T/C is, setting by setting: (dose: 18.8 mg/kg/injection, schedule: Q01DX009 (ip), vehicle: saline with Tween-80) 158 % of control; (dose: 37.5 mg/kg/injection, schedule: Q01DX009 (ip), vehicle: saline with Tween-80) 185 % of control; (dose: 75.0 mg/kg/injection, schedule: Q01DX009 (ip), vehicle: saline with Tween-80) 235 % of control; (dose: 300.0 mg/kg/injection, schedule: Q01DX009 (ip), vehicle: saline with Tween-80) 91 % of control.
Consider `CN1C(C)(C)CC(O)(C(O)(c2ccccc2)c2ccccc2)CC1(C)C`, for which the T/C (dose: 12.5 mg/kg/injection, schedule: Q04DX003 (ip), vehicle: Klucel (hydroxypropylcellulose) (HPC)) was 109 % of control; the T/C (dose: 25.0 mg/kg/injection, schedule: Q04DX003 (ip), vehicle: Klucel (hydroxypropylcellulose) (HPC)) was 109 % of control; the T/C (dose: 50.0 mg/kg/injection, schedule: Q04DX003 (ip), vehicle: Klucel (hydroxypropylcellulose) (HPC)) was 113 % of control.
